# pIC50: −log10 of the molar value.
# Biological target: T1, human 11β-HSD1 (Homo sapiens, UniProt P28845)
# T1 construct: host or cells: microsome fraction
# Assay: Enzymatic 11beta-HSD1 test (SPA-based detection)
# Assay type: biochemical
# Conditions: human 11β-HSD1 microsome fraction, [1,2-3H]-cortisone, NADPH, 37° C. 1 hour
# Procedure: Enzymatic 11beta-HSD1 test:
# To measure the activity of the compounds, an SPA-based detection method (Solly et al. 2005) was employed. First of all, 20 μl of the human 11β-HSD1 microsome fraction (0.2 μg of protein), prepared in 50 mM HEPES, 0.1% BSA (w/v), were applied to a plate with 384 wells. The test compounds (0.09 μl) were applied to the assay plate in 100% DMSO. The reaction was started by addition of 20 μl of [1,2-^3H]-cortisone (0.1 μCi/[…]) in assay buffer comprising 25 mM HEPES, 100 mM KCl, 5 mM NaCl, 2 mM MgCl2 and 0.25 mM NADPH. The plate was agitated at 37° C. for 1 hour. At the same time, a stop solution comprising 20 mg/ml SPA-PVT beads, 1.6 mg/ml monoclonal cortisol antibody and 0.01 mM SSR110887 (inhibitor from the Biovitrium patent) in 50 mM HEPES, 1 M NaCl and 1 M KCl was stirred at room temperature. To stop the reaction, 25 μl of the stop solution were added to each well. The plate was agitated gently at room temperature for 1 further hour and then centrifuged at 500 gav for 1 minute, in order that the SPA beads could settle out. The plate was then read in a Wallac-1450-Microbeta unit with a standard SPA program (counting time 1 min/well). The comparative compound was glycyrrhetinic acid.
# Protein and radioactive substrate were dispensed with a Biomek FX unit (Beckman Coulter) for handling liquids. The test compounds were added with a Cybi-Well equipped with a 90 nl pin tool (CyBio).
# Lit.: Solly S, Mundt S S, Zokian H J, Juy-Fang Ding G, Hermanowski-Vosatka A, Strulovici B and Zheng W. High-throughput screening of 11β-Hydroxysteroid dehydrogenase type 1 in scintillation proximity format. Assay Drug Dev Technol 2005; 3:377-384.
# T1 sequence (P28845 whole entry): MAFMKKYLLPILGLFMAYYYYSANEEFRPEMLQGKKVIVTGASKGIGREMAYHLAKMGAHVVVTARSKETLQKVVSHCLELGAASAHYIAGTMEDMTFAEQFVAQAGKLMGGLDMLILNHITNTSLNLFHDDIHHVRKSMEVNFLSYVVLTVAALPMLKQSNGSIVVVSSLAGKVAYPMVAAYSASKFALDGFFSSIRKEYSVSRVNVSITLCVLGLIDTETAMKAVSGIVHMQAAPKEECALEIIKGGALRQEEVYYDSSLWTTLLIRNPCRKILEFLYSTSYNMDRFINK
row,Structure (SMILES),pIC50
1,"CC(C)(C)c1ccc(C2(C)C(C)(C)OC(N[C@@H](CCO)c3ccccc3)=NS2(=O)=O)cc1 (stereo partly drawn) [Compound 62, (S)-3-[5-(4-tert-Butylphenyl)-5,6,6-trimethyl-4,4-dioxo-5,6-dihydro-4H-4lambda6-[1,4,3]oxathiazin-2-ylamino]-3-phenylpropan-1-ol]",7.33
2,"C[C@H](NC1=NS(=O)(=O)C(C)(c2ccc(C(C)(C)C)cc2)C(C)(C)O1)c1ccccc1F (stereo partly drawn) [Compound 63, [5-(4-tert-Butylphenyl)-5,6,6-trimethyl-4,4-dioxo-5,6-dihydro-4H-4lambda6-[1,4,3]oxathiazin-2-yl]-[(S)-1-(2-fluorophenyl)ethyl]amine]",7.49
3,"CC1(C)OC(NC2CCCCC2)=NS(=O)(=O)C1c1ccccc1 (centres unmarked) [Example 1, Cyclohexyl-(6,6-dimethyl-4,4-dioxo-5-phenyl-5,6-dihydro-4H-4lambda6-[1,4,3]oxathiazin-2-yl)-amine]",6.95
4,"CC1(C)OC(N[C@@H](CCO)c2ccccc2)=NS(=O)(=O)C1c1ccccc1 (stereo partly drawn) [Example 2, (S)-3-(6,6-Dimethyl-4,4-dioxo-5-phenyl-5,6-dihydro-4H-4lambda6-[1,4,3]oxathiazin-2-ylamino)-3-phenyl-propan-1-ol]",7.77
5,"CC1(C)OC(NC2CCCCC2)=NS(=O)(=O)C1c1ccc(-c2ccccc2)cc1 (centres unmarked) [Example 3, (5-Biphenyl-4-yl-6,6-dimethyl-4,4-dioxo-5,6-dihydro-4H-4lambda6-[1,4,3]oxathiazin-2-yl)-cyclohexyl-amine]",5.90
6,"CC1(C)OC(N[C@@H](CCO)c2ccccc2)=NS(=O)(=O)C1c1ccc(OCc2ccccc2)cc1 (stereo partly drawn) [Example 4, (S)-3-[5-(4-Benzyloxy-phenyl)-6,6-dimethyl-4,4-dioxo-5,6-dihydro-4H-4lambda6-[1,4,3]oxathiazin-2-ylamino]-3-phenyl-propan-1-ol]",7.85
7,"CC1(C)OC(N[C@@H](CCO)c2ccccc2)=NS(=O)(=O)C1c1ccc(O)cc1 (stereo partly drawn) [Example 5, 4-[2-((S)-3-Hydroxy-1-phenyl-propylamino)-6,6-dimethyl-4,4-dioxo-5,6-dihydro-4H-4lambda6-[1,4,3]oxathiazin-5-yl]-phenol]",5.78
8,"COc1ccc(C2C(C)(C)OC(N[C@@H](CCO)c3ccccc3)=NS2(=O)=O)cc1 (stereo partly drawn) [Example 6, (S)-3-[5-(4-Methoxy-phenyl)-6,6-dimethyl-4,4-dioxo-5,6-dihydro-4H-4lambda6-[1,4,3]oxathiazin-2-ylamino]-3-phenyl-propan-1-ol]",7.54
9,"CC1(C)OC(N[C@@H](CCO)c2ccccc2)=NS(=O)(=O)C1c1cccc(Br)c1 (stereo partly drawn) [Example 7, (S)-3-[5-(3-Bromophenyl)-6,6-dimethyl-4,4-dioxo-5,6-dihydro-4H-4lambda6-[1,4,3]oxathiazin-2-ylamino]-3-phenyl-propan-1-ol]",7.70
10,"CC1(C)OC(N[C@@H](CCO)c2ccccc2)=NS(=O)(=O)C1c1cccc(-c2ccccc2)c1 (stereo partly drawn) [Example 8, (S)-3-(5-Biphenyl-3-yl-6,6-dimethyl-4,4-dioxo-5,6-dihydro-4H-4lambda6-[1,4,3]oxathiazin-2-ylamino)-3-phenyl-propan-1-ol]",7.66
11,"Cc1cccc(C2C(C)(C)OC(N[C@@H](CCO)c3ccccc3)=NS2(=O)=O)c1 (stereo partly drawn) [Example 9, (S)-3-(6,6-Dimethyl-4,4-dioxo-5-m-tolyl-5,6-dihydro-4H-4lambda6-[1,4,3]oxathiazin-2-ylamino)-3-phenyl-propan-1-ol]",7.66
12,"CC1(C)OC(N[C@@H](CCO)c2ccccc2)=NS(=O)(=O)C1c1cccc(Cc2ccccc2)c1 (stereo partly drawn) [Example 10, (S)-3-[5-(3-Benzyl-phenyl)-6,6-dimethyl-4,4-dioxo-5,6-dihydro-4H-4lambda6-[1,4,3]oxathiazin-2-ylamino]-3-phenyl-propan-1-ol]",7.82
13,"Cc1ccc(C2C(C)(C)OC(N[C@@H](CCO)c3ccccc3)=NS2(=O)=O)cc1 (stereo partly drawn) [Example 11, (S)-3-(6,6-Dimethyl-4,4-dioxo-5-p-tolyl-5,6-dihydro-4H-4lambda6-[1,4,3]oxathiazin-2-ylamino)-3-phenyl-propan-1-ol]",8.05
14,"CC1(C)OC(N[C@@H](CCO)c2ccccc2)=NS(=O)(=O)C1c1ccc(-c2ccccc2)cc1 (stereo partly drawn) [Example 12, (S)-3-(5-Biphenyl-4-yl-6,6-dimethyl-4,4-dioxo-5,6-dihydro-4H-4lambda6-[1,4,3]oxathiazin-2-ylamino)-3-phenyl-propan-1-ol]",7.35
15,"CC1(C)OC(NC2CCCCC2)=NS(=O)(=O)C1c1cccc(Br)c1 (centres unmarked) [Example 13, [5-(3-Bromophenyl)-6,6-dimethyl-4,4-dioxo-5,6-dihydro-4H-4lambda6-[1,4,3]oxathiazin-2-yl]-cyclohexyl-amine]",7.33
16,"CC1(C)OC(N[C@@H](CCO)c2ccccc2)=NS(=O)(=O)C1c1cccc(-c2cncnc2)c1 (stereo partly drawn) [Example 14, (S)-3-[6,6-Dimethyl-4,4-dioxo-5-(3-pyrimidin-5-yl-phenyl)-5,6-dihydro-4H-4lambda6-[1,4,3]oxathiazin-2-ylamino]-3-phenyl-propan-1-ol]",7.49
17,"CC1(C)OC(N[C@@H](CCO)c2ccccc2)=NS(=O)(=O)C1c1ccccc1Cl (stereo partly drawn) [Example 15, (S)-3-[5-(2-Chlorophenyl)-6,6-dimethyl-4,4-dioxo-5,6-dihydro-4H-4lambda6-[1,4,3]oxathiazin-2-ylamino]-3-phenyl-propan-1-ol]",7.96
18,"Cc1ccccc1C1C(C)(C)OC(N[C@@H](CCO)c2ccccc2)=NS1(=O)=O (stereo partly drawn) [Example 16, (S)-3-(6,6-Dimethyl-4,4-dioxo-5-o-tolyl-5,6-dihydro-4H-4lambda6-[1,4,3]oxathiazin-2-ylamino)-3-phenyl-propan-1-ol]",7.96
19,"CC1(C)OC(NC2CCCCC2)=NS(=O)(=O)C1(C)c1ccccc1 (centres unmarked) [Example 18, Cyclohexyl-(5,6,6-trimethyl-4,4-dioxo-5-phenyl-5,6-dihydro-4H-4lambda6-[1,4,3]oxathiazin-2-yl)-amine]",7.44
20,"CC1(C)OC(NC2CCCCC2)=NS(=O)(=O)C1c1cccc(OCc2ccccc2)c1 (centres unmarked) [Example 19, [5-(3-Benzyloxy-phenyl)-6,6-dimethyl-4,4-dioxo-5,6-dihydro-4H-4lambda6-[1,4,3]oxathiazin-2-yl]-cyclohexyl-amine]",6.45
21,"CC1(C)OC(N[C@@H](CCO)c2ccccc2)=NS(=O)(=O)C1c1cccc(Cl)c1 (stereo partly drawn) [Example 20, (S)-3-[5-(3-Chloro-phenyl)-6,6-dimethyl-4,4-dioxo-5,6-dihydro-4H-4lambda6-[1,4,3]oxathiazin-2-ylamino]-3-phenyl-propan-1-ol]",7.68
22,"CC1(C)OC(NC2CCCCC2)=NS(=O)(=O)C1c1cccc(O)c1 (centres unmarked) [Example 22, 3-(2-Cyclohexylamino-6,6-dimethyl-4,4-dioxo-5,6-dihydro-4H-4lambda6-[1,4,3]oxathiazin-5-yl)-phenol]",6.79
23,"COc1cccc(C2C(C)(C)OC(NC3CCCCC3)=NS2(=O)=O)c1 (centres unmarked) [Example 23, Cyclohexyl-[5-(3-methoxy-phenyl)-6,6-dimethyl-4,4-dioxo-5,6-dihydro-4H-4lambda6-[1,4,3]oxathiazin-2-yl]-amine]",6.94
24,"CC1(C)OC(N[C@@H](CCO)c2ccccc2)=NS(=O)(=O)C1c1cccc(OCc2ccccc2)c1 (stereo partly drawn) [Example 24, (S)-3-[5-(3-Benzyloxy-phenyl)-6,6-dimethyl-4,4-dioxo-5,6-dihydro-4H-4lambda6-[1,4,3]oxathiazin-2-ylamino]-3-phenyl-propan-1-ol]",7.68
25,"C[C@H](NC1=NS(=O)(=O)C(c2cccc(Br)c2)C(C)(C)O1)c1ccccc1F (stereo partly drawn) [Example 27, [5-(3-Bromophenyl)-6,6-dimethyl-4,4-dioxo-5,6-dihydro-4H-4lambda6-[1,4,3]oxathiazin-2-yl]-[(S)-1-(2-fluorophenyl)-ethyl]-amine]",7.89
26,"C[C@H](NC1=NS(=O)(=O)C(C)(c2cccc(Br)c2)C(C)(C)O1)c1ccccc1F (stereo partly drawn) [Example 30, [5-(3-Bromophenyl)-5,6,6-trimethyl-4,4-dioxo-5,6-dihydro-4H-4lambda6-[1,4,3]oxathiazin-2-yl]-[(S)-1-(2-fluorophenyl)-ethyl]-amine]",8.15
27,"C[C@H](NC1=NS(=O)(=O)C(c2ccccc2)C(C)(C)O1)c1ccccc1F (stereo partly drawn) [Example 31, (6,6-Dimethyl-4,4-dioxo-5-phenyl-5,6-dihydro-4H-4lambda6-[1,4,3]oxathiazin-2-yl)-[(S)-1-(2-fluoro-phenyl)-ethyl]-amine]",8.00
28,"CC1(C)OC(N[C@@H](CCO)c2ccccc2)=NS(=O)(=O)C1c1cccc(O)c1 (stereo partly drawn) [Example 32, 3-[2-((S)-3-Hydroxy-1-phenyl-propylamino)-6,6-dimethyl-4,4-dioxo-5,6-dihydro-4H-4lambda6-[1,4,3]oxathiazin-5-yl]-phenol]",7.62
29,"CC1(C)OC(N[C@@H](CCO)c2ccccc2)=NS(=O)(=O)C1(C)c1cccc(Br)c1 (stereo partly drawn) [Example 33, (S)-3-[5-(3-Bromophenyl)-5,6,6-trimethyl-4,4-dioxo-5,6-dihydro-4H-4lambda6-[1,4,3]oxathiazin-2-ylamino]-3-phenyl-propan-1-ol]",8.10

# Source: patent publication US8895547B2, “Substituted phenyl-oxathiazine derivatives, method for producing them, drugs containing said compounds and the use thereof” (Sanofi, priority 2011, dated 2014)
